Columns and labels:
[1] = tested on: C57BL/6 mice; experiment: Acute Oral Glucose Tolerance Test; type: in vivo; conditions: dosed at 30 mg/kg orally 60 min before glucose challenge (2 g/kg), AUC t=0-120 min compared to vehicle
Procedure: In Vivo GPR120 Assays 1) Acute Oral Glucose Tolerance Test
C57BL/6 mice were housed individually and fed a standard rodent chow diet. At approximately 11 weeks age, after a 5 h fast, these mice were orally treated with vehicle or test compounds 60 min before a glucose challenge (2 g/kg). Blood glucose levels were determined from tail bleeds taken at −60, 0, 15, 30, 60 and 120 min after the glucose challenge. […] This AUC for compound treatment is compared to vehicle treatment.

[2] = molecular target: human GPR120 (Homo sapiens (Human), UniProt Q5NUL3); experiment: GPR120 pERK AlphaScreen SureFire Assay (human GPR120 pERK assay); type: cell-based; conditions: CHO cells stably transfected with short form of human GPR120
human GPR120, sequence (Q5NUL3 whole entry): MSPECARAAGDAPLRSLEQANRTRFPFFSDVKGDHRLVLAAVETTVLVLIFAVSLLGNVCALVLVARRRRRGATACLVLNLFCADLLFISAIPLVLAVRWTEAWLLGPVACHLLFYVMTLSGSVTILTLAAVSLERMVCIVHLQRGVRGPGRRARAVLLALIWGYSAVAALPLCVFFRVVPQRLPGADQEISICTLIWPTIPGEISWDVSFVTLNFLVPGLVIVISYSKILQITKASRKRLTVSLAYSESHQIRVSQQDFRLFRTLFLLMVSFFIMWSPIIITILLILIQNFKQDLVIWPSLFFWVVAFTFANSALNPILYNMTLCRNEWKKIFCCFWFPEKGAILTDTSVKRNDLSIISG
Outline: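 CHOA12 cells stably expressing short-form human GPR120, serum-starved 2 h, then stimulated 7 min at 37° C with compound (33.33 μM to 0.56 nM, 11-point). Phospho-ERK1/2 read by AlphaScreen SureFire in lysates. Activation scaled between DMSO and 50 μM linolenic acid; EC50 from a 4-parameter logistic fit.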

For O=C(O)[C@H]1C[C@@H]1COc1ccc(-c2cc(Oc3cccc(F)c3)cc(F)c2F)cc1F (single isomer, unassigned) [Example 105], the “reduced glucose AUC” value [1] was 55% and the EC50 [2] was 140 nM.
